{"source": "ChEMBL document CHEMBL4145536", "about": "“Design, synthesis and biological evaluation of novel bouchardatine analogs as potential inhibitors of adipogenesis/lipogenesis in 3T3-L1 adipocytes” (Eur J Med Chem, 2018)", "note": "Active and inactive are the calls of the source. The calls are words filed in the database; no cut-off is given here."}
{"test_system": "HepG2", "assay": "Lipid lowering activity in human HepG2 cells assessed as decrease in triglyceride level at 10 uM for 6 days in presence of oleic acid by oil red o-staining based assay relative to control", "format": "functional", "design": "scale not given: the % may be the effect or the level left", "conditions": "not given", "units": {"Activity": "%"}}
{"smiles": "OCCCNc1nc(-c2[nH]c3ccccc3c2F)nc2ccccc12", "Activity": 26.3}
{"smiles": "O=c1[nH]c(-c2cc3ccccc3[nH]2)nc2ccccc12", "Activity": 14.9}
{"smiles": "CCN(CC)CCNc1nc(-c2[nH]c3ccccc3c2Br)nc2ccccc12", "Activity": 50}
{"smiles": "OCCNc1nc(-c2[nH]c3ccccc3c2Cl)nc2ccccc12", "Activity": 53.1}
{"smiles": "CN(C)CCCNc1nc(-c2cc3ccccc3[nH]2)nc2ccccc12", "Activity": 5.8}
{"smiles": "CN(C)CCCNc1nc(-c2[nH]c3ccccc3c2F)nc2ccccc12", "Activity": 32.7}
{"smiles": "Clc1c(-c2nc(NCCCN3CCOCC3)c3ccccc3n2)[nH]c2ccccc12", "Activity": 36.6}
{"smiles": "O=c1[nH]c(C2=Nc3ccccc3C2(F)F)nc2ccccc12", "Activity": 24.1}
{"smiles": "CN(C)CCCNc1nc(-c2[nH]c3ccccc3c2Br)nc2ccccc12", "Activity": 28.3}
{"smiles": "Clc1c(-c2nc(NCCN3CCCC3)c3ccccc3n2)[nH]c2ccccc12", "Activity": 42.5}
{"smiles": "CC(C)CNc1nc(-c2[nH]c3ccccc3c2Cl)nc2ccccc12", "Activity": 42.8}
{"smiles": "Clc1c(-c2nc(NCCN3CCOCC3)c3ccccc3n2)[nH]c2ccccc12", "Activity": 46.9}
{"smiles": "CN(C)CCNc1nc(-c2[nH]c3ccccc3c2Cl)nc2ccccc12", "Activity": 33}
{"smiles": "CN(C)CCNc1nc(-c2cc3ccccc3[nH]2)nc2ccccc12", "Activity": 0.6}
{"smiles": "CN1CCN(CCCNc2nc(-c3[nH]c4ccccc4c3Cl)nc3ccccc23)CC1", "Activity": 41.2}
{"smiles": "CN(C)CCCNc1nc(-c2[nH]c3ccccc3c2C=O)nc2ccccc12", "Activity": 52.1}
{"smiles": "Fc1c(-c2nc(NCCN3CCCC3)c3ccccc3n2)[nH]c2ccccc12", "Activity": 23.6}
{"smiles": "CN(C)CCNc1nc(-c2[nH]c3ccccc3c2F)nc2ccccc12", "Activity": 24.2}
{"smiles": "c1ccc2[nH]c(-c3nc(NCCCN4CCCC4)c4ccccc4n3)cc2c1", "Activity": 14.2}
{"test_system": "3T3-L1", "assay": "Lipid lowering activity in mouse 3T3L1 cells assessed as decrease in triglyceride level at 10 uM for 6 days by oil red o-staining based microscopic assay", "format": "functional, cell-based", "conditions": "not given"}
{"smiles": "O=c1[nH]c(C2=Nc3ccccc3C2(F)F)nc2ccccc12", "Activity": "Active"}
{"smiles": "CN(C)CCCNc1nc(-c2[nH]c3ccccc3c2Br)nc2ccccc12", "Activity": "Active"}
{"smiles": "CC(C)CNc1nc(-c2[nH]c3ccccc3c2Cl)nc2ccccc12", "Activity": "Active"}
{"smiles": "CN(C)CCCNc1nc(-c2[nH]c3ccccc3c2C=O)nc2ccccc12", "Activity": "Active"}
{"test_system": "3T3-L1", "assay": "Lipid lowering activity in mouse 3T3L1 cells assessed as decrease in triglyceride level at 10 uM for 6 days by oil red o-staining based assay relative to control", "format": "functional", "design": "scale not given: the % may be the effect or the level left", "conditions": "not given", "units": {"Activity": "%"}}
{"smiles": "OCCCNc1nc(-c2[nH]c3ccccc3c2F)nc2ccccc12", "Activity": 44.4}
{"smiles": "O=c1[nH]c(-c2cc3ccccc3[nH]2)nc2ccccc12", "Activity": 43.8}
{"smiles": "CCN(CC)CCNc1nc(-c2[nH]c3ccccc3c2Br)nc2ccccc12", "Activity": 86.5}
{"smiles": "OCCNc1nc(-c2[nH]c3ccccc3c2Cl)nc2ccccc12", "Activity": 38.3}
{"smiles": "CN(C)CCCNc1nc(-c2cc3ccccc3[nH]2)nc2ccccc12", "Activity": 48.2}
{"smiles": "CN(C)CCCNc1nc(-c2[nH]c3ccccc3c2F)nc2ccccc12", "Activity": 45}
{"smiles": "Clc1c(-c2nc(NCCCN3CCOCC3)c3ccccc3n2)[nH]c2ccccc12", "Activity": 56.6}
{"smiles": "O=c1[nH]c(C2=Nc3ccccc3C2(F)F)nc2ccccc12", "Activity": 39.4}
{"smiles": "CN(C)CCCNc1nc(-c2[nH]c3ccccc3c2Br)nc2ccccc12", "Activity": 59.2}
{"smiles": "Clc1c(-c2nc(NCCN3CCCC3)c3ccccc3n2)[nH]c2ccccc12", "Activity": 60.5}
{"smiles": "CC(C)CNc1nc(-c2[nH]c3ccccc3c2Cl)nc2ccccc12", "Activity": 45.7}
{"smiles": "Clc1c(-c2nc(NCCN3CCOCC3)c3ccccc3n2)[nH]c2ccccc12", "Activity": 54.6}
{"smiles": "CN(C)CCNc1nc(-c2[nH]c3ccccc3c2Cl)nc2ccccc12", "Activity": 89.1}
{"smiles": "CN(C)CCNc1nc(-c2cc3ccccc3[nH]2)nc2ccccc12", "Activity": 42.3}
{"smiles": "CN1CCN(CCCNc2nc(-c3[nH]c4ccccc4c3Cl)nc3ccccc23)CC1", "Activity": 83.4}
{"smiles": "CN(C)CCCNc1nc(-c2[nH]c3ccccc3c2C=O)nc2ccccc12", "Activity": 82.1}
{"smiles": "Fc1c(-c2nc(NCCN3CCCC3)c3ccccc3n2)[nH]c2ccccc12", "Activity": 64.2}
{"smiles": "CN(C)CCNc1nc(-c2[nH]c3ccccc3c2F)nc2ccccc12", "Activity": 57.3}
{"smiles": "c1ccc2[nH]c(-c3nc(NCCCN4CCCC4)c4ccccc4n3)cc2c1", "Activity": 42.7}
{"test_system": "HepG2", "assay": "Cytotoxicity against human HepG2 cells assessed as decrease in cell viability after 24 hrs by MTT assay", "format": "cell-based", "conditions": "HepG2, 24 h", "units": {"IC50": "µM"}}
{"smiles": "OCCCNc1nc(-c2[nH]c3ccccc3c2F)nc2ccccc12", "IC50": 30}
{"smiles": "O=c1[nH]c(-c2cc3ccccc3[nH]2)nc2ccccc12", "IC50": 14.9}
{"smiles": "CCN(CC)CCNc1nc(-c2[nH]c3ccccc3c2Br)nc2ccccc12", "IC50": 6.1}
{"smiles": "OCCNc1nc(-c2[nH]c3ccccc3c2Cl)nc2ccccc12", "IC50": 20.9}
{"smiles": "CN(C)CCCNc1nc(-c2cc3ccccc3[nH]2)nc2ccccc12", "IC50": 44.2}
{"smiles": "CN(C)CCCNc1nc(-c2[nH]c3ccccc3c2F)nc2ccccc12", "IC50": 6}
{"smiles": "Clc1c(-c2nc(NCCCN3CCOCC3)c3ccccc3n2)[nH]c2ccccc12", "IC50": 10.3}
{"smiles": "O=c1[nH]c(C2=Nc3ccccc3C2(F)F)nc2ccccc12", "IC50": "> 50"}
{"smiles": "CN(C)CCCNc1nc(-c2[nH]c3ccccc3c2Br)nc2ccccc12", "IC50": 4.3}
{"smiles": "Clc1c(-c2nc(NCCN3CCCC3)c3ccccc3n2)[nH]c2ccccc12", "IC50": 2.5}
{"smiles": "CC(C)CNc1nc(-c2[nH]c3ccccc3c2Cl)nc2ccccc12", "IC50": 22.8}
{"smiles": "Clc1c(-c2nc(NCCN3CCOCC3)c3ccccc3n2)[nH]c2ccccc12", "IC50": 15.6}
{"smiles": "CN(C)CCNc1nc(-c2[nH]c3ccccc3c2Cl)nc2ccccc12", "IC50": 2.7}
{"smiles": "CN(C)CCNc1nc(-c2cc3ccccc3[nH]2)nc2ccccc12", "IC50": 25.3}
{"smiles": "CN1CCN(CCCNc2nc(-c3[nH]c4ccccc4c3Cl)nc3ccccc23)CC1", "IC50": 2.7}
{"smiles": "CN(C)CCCNc1nc(-c2[nH]c3ccccc3c2C=O)nc2ccccc12", "IC50": 27.4}
{"smiles": "Fc1c(-c2nc(NCCN3CCCC3)c3ccccc3n2)[nH]c2ccccc12", "IC50": 7.3}
{"smiles": "CN(C)CCNc1nc(-c2[nH]c3ccccc3c2F)nc2ccccc12", "IC50": 4.2}
{"smiles": "c1ccc2[nH]c(-c3nc(NCCCN4CCCC4)c4ccccc4n3)cc2c1", "IC50": "> 50"}
{"test_system": "3T3-L1", "assay": "Cytotoxicity against mouse 3T3L1 cells assessed as decrease in cell viability after 24 hrs by MTT assay", "format": "cell-based", "conditions": "3T3-L1, 24 h", "units": {"IC50": "µM"}}
{"smiles": "OCCCNc1nc(-c2[nH]c3ccccc3c2F)nc2ccccc12", "IC50": "> 50"}
{"smiles": "O=c1[nH]c(-c2cc3ccccc3[nH]2)nc2ccccc12", "IC50": 43.8}
{"smiles": "CCN(CC)CCNc1nc(-c2[nH]c3ccccc3c2Br)nc2ccccc12", "IC50": 15.4}
{"smiles": "OCCNc1nc(-c2[nH]c3ccccc3c2Cl)nc2ccccc12", "IC50": "> 50"}
{"smiles": "CN(C)CCCNc1nc(-c2cc3ccccc3[nH]2)nc2ccccc12", "IC50": 30.3}
{"smiles": "CN(C)CCCNc1nc(-c2[nH]c3ccccc3c2F)nc2ccccc12", "IC50": 22.2}
{"smiles": "Clc1c(-c2nc(NCCCN3CCOCC3)c3ccccc3n2)[nH]c2ccccc12", "IC50": 30.1}
{"smiles": "O=c1[nH]c(C2=Nc3ccccc3C2(F)F)nc2ccccc12", "IC50": "> 50"}
{"smiles": "CN(C)CCCNc1nc(-c2[nH]c3ccccc3c2Br)nc2ccccc12", "IC50": 11.6}
{"smiles": "Clc1c(-c2nc(NCCN3CCCC3)c3ccccc3n2)[nH]c2ccccc12", "IC50": 24.5}
{"smiles": "CC(C)CNc1nc(-c2[nH]c3ccccc3c2Cl)nc2ccccc12", "IC50": "> 50"}
{"smiles": "Clc1c(-c2nc(NCCN3CCOCC3)c3ccccc3n2)[nH]c2ccccc12", "IC50": 37.9}
{"smiles": "CN(C)CCNc1nc(-c2[nH]c3ccccc3c2Cl)nc2ccccc12", "IC50": 14.8}
{"smiles": "CN(C)CCNc1nc(-c2cc3ccccc3[nH]2)nc2ccccc12", "IC50": 12.9}
{"smiles": "CN1CCN(CCCNc2nc(-c3[nH]c4ccccc4c3Cl)nc3ccccc23)CC1", "IC50": 14.4}
{"smiles": "CN(C)CCCNc1nc(-c2[nH]c3ccccc3c2C=O)nc2ccccc12", "IC50": 34.4}
{"smiles": "Fc1c(-c2nc(NCCN3CCCC3)c3ccccc3n2)[nH]c2ccccc12", "IC50": 24.5}
{"smiles": "CN(C)CCNc1nc(-c2[nH]c3ccccc3c2F)nc2ccccc12", "IC50": 21.7}
{"smiles": "c1ccc2[nH]c(-c3nc(NCCCN4CCCC4)c4ccccc4n3)cc2c1", "IC50": "> 50"}
